ChEMBL document CHEMBL1926654, “Design and synthesis of novel β-diketo derivatives as HIV-1 integrase inhibitors” (Bioorg Med Chem, 2012)

Columns and labels:
[1] = target: Human immunodeficiency virus type 1 integrase (Human immunodeficiency virus 1, UniProt Q7ZJM1); assay: Inhibition of Human immunodeficiency virus 1 integrase-mediated strand transfer activity after 1 hr
[2] = Cytotoxicity against human TZM-bl cells after 48 hrs by MTT assay; assay type: cell-based
[3] = system: Human immunodeficiency virus 1; assay: Antiviral activity against Human immunodeficiency virus 1 infected in human TZM-bl cells assessed as inhibition of viral replication after 48 hrs by inverted microscopic analysis; assay type: functional, organism-based; conditions: Human immunodeficiency virus 1, TZM-bl
[4] = Therapeutic index, ratio of CC50 for human TZM-bl cells to EC50 for Human immunodeficiency virus 1; assay type: cell-based; conditions: read-out: Ratio CC50/EC50

Human immunodeficiency virus type 1 integrase, sequence (Q7ZJM1 whole entry): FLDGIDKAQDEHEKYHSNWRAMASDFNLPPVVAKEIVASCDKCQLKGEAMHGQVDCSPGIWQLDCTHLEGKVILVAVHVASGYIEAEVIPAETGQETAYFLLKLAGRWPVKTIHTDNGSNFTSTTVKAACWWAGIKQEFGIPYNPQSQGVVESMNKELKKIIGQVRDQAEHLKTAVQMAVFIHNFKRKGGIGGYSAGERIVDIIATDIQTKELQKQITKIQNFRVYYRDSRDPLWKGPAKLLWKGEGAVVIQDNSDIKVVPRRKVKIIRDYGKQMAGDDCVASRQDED

IC50 [1] | EC50 [3] | Structure (SMILES) | CC50 at 48 h [2] | selectivity ratio [4]
> 59 µM |  | Cc1c(C(=O)/C=C(\O)c2ccccc2)nnn1Cc1ccc(F)cc1 |  | 
> 54 µM |  | COc1ccc(/C(O)=C/C(=O)c2nnn(Cc3ccc(F)cc3)c2C)cc1 |  | 
> 50 µM |  | COc1ccc(/C(O)=C/C(=O)c2nnn(Cc3ccc(F)cc3)c2C)cc1OC |  | 
> 47 µM |  | COc1cc(/C(O)=C/C(=O)c2nnn(Cc3ccc(F)cc3)c2C)cc(OC)c1OC |  | 
> 59 µM |  | Cc1c(C(=O)/C=C(\O)c2ccccc2)nnn1Cc1cccc(F)c1 |  | 
> 54 µM |  | COc1ccc(/C(O)=C/C(=O)c2nnn(Cc3cccc(F)c3)c2C)cc1 |  | 
> 50 µM |  | COc1ccc(/C(O)=C/C(=O)c2nnn(Cc3cccc(F)c3)c2C)cc1OC |  | 
> 47 µM |  | COc1cc(/C(O)=C/C(=O)c2nnn(Cc3cccc(F)c3)c2C)cc(OC)c1OC |  | 
> 56 µM |  | Cc1c(C(=O)/C=C(\O)c2ccc(O)cc2)nnn1Cc1ccc(F)cc1 |  | 
40 µM |  | Cc1c(C(=O)/C=C(\O)c2ccc(O)c(O)c2)nnn1Cc1ccc(F)cc1 |  | 
2.6 µM | 8.92 µM | Cc1c(C(=O)/C=C(\O)c2cc(O)c(O)c(O)c2)nnn1Cc1ccc(F)cc1 | 33.4 µM | 3.7
> 56 µM |  | Cc1c(C(=O)/C=C(\O)c2ccc(O)cc2)nnn1Cc1cccc(F)c1 |  | 
32 µM |  | Cc1c(C(=O)/C=C(\O)c2ccc(O)c(O)c2)nnn1Cc1cccc(F)c1 |  | 
0.78 µM | 7.32 µM | Cc1c(C(=O)/C=C(\O)c2cc(O)c(O)c(O)c2)nnn1Cc1cccc(F)c1 | 36.6 µM | 5

Structure (SMILES) | IC50 [1] | EC50 [3] | CC50 at 48 h [2] | selectivity ratio [4]
Cc1nnc(C(=O)NC(C)(C)c2nc(C(=O)NCc3ccc(F)cc3)c(O)c(=O)n2C)o1 |  | 0.025 µM | > 30 µM | 
